# Source: patent US20190365719A1, “COMBINATION TREATMENTS OF HSP90 INHIBITORS FOR ENHANCING TUMOR IMMUNOGENICITY AND METHODS OF USE THEREOF” (Massachusetts Institute of Technology, priority 2018, published 2019)
# Experiments:
# [1] = system: MC38 cells; assay: qRT-PCR of MHC Class I and immunoproteasome genes in MC38 cells; assay type: cell-based, mouse; settings: 60 nM, 72 hours
# Description: FIGS. 5A-5L are graphs showing low dose administration of HSP90i diversifies the antigen repertoire of tumor cells. FIG. 5A is a bar graph showing relative mRNA expression MHC Class I and immunoproteasome gene expression in MC38 cells treated for 72 hours with HSP90i (60 nM) based on qRT-PCR analysis. All treated samples were normalized to DMSO (Veh)=1 (n=3); FIG. 5B is a schematic depiction of the effect of HSP90i treatment on proteasome composition and ONX-0914 mode of action; FIG. 5C is a bar graph showing cell surface expression of MHC Class I on MC38 cells treated with vehicle or HSP90i in combination with DMSO or ONX-0914 (500 nM). Normalized values calculated based on the median fluorescence intensity of the baseline sample for DMSO- or ONX-0914-treated samples (n=3); FIG. 5D is a schematic overview of protocol for MHC Class I peptide profiling; motif analysis for amino acid enrichment of 8-mer (FIG. 5E) and 9-mer peptides (FIG. 5F) identified by mass spectrometry; FIG. 5G is a histogram depicting the size distribution of peptides identified by MHC Class I IP and mass spectrometry; FIG. 5H is a Venn diagram of the number of unique peptides identified in vehicle- and Hsp90i-treated samples. […]
# [2] = system: MC38 cells; assay: Flow cytometry of MHC Class I H2-Kb surface expression on MC38 cells; assay type: cell-based, mouse
# Description: For analysis of MHC Class I surface expression, cells were seeded into 12 well plates (125,000/well). 24-hours later, cells were treated with the indicated concentrations of HSP90i (NVP-HSP990) or DMSO vehicle. 72-hours after treatment, cells were dissociated with Accumax (Innovative Cell Technologies) and each treatment condition was distributed into 2 wells of a 96 well plate. […] After incubation with antibody, cells were washed 1× in ice cold PBS+10% FBS prior to analysis on a MACSQuant VYB flow cytometer. Cytometric data were plotted and analyzed with FloJo.
# For analysis of MHC Class I surface expression, cells were seeded into 12 well plates (125,000/well). 24-hours later, cells were treated with the indicated concentrations of HSP90i (NVP-HSP990) or DMSO vehicle. 72-hours after treatment, cells were dissociated with Accumax (Innovative Cell Technologies) and each treatment condition was distributed into 2 wells of a 96 well plate. […] After incubation with antibody, cells were washed 1× in ice cold PBS+10% FBS prior to analysis on a LSR-2 flow cytometer. Cytometric data were plotted and analyzed with FloJo.
# [3] = system: MC38 tumors; assay: Subcutaneous MC38 tumors in immunocompromised NOD-SCID mice; assay type: in vivo; settings: 0.5 mg/kg/day in drinking water
structure (smiles),measurement,setting,value
COc1cccc(-c2cc(F)ccc2[C@H]2Cc3nc(N)nc(C)c3C(=O)N2)n1 [NVP-HSP990],"expression of immunoproteasome genes Psme1, Psme2, Psmb8, Psmb9, Psmb10",[1],robustly induced
same,transcript levels of MHC Class I heavy chains H2-K1 and H2-D1 or light chain B2m,[1],did not alter transcript levels
same,MHC-I surface expression on MC38 cells,[2]; 60 nM for each drug,induced MHC-I
same,MHC Class I surface expression on MC38 cells,"[2]; 15, 30, 60 nM, 72 hours, below the IC50 for cytotoxicity",stimulated MHC Class I surface expression
same,effect on tumor growth,[3],no effect on tumor growth
